# Patent US20070258972A1, “Combination of a Histone Deacetylase Inhibitor with a Death Receptor Ligand” (priority 2003, published 2007)
# Legend:
# Format in all cases: cell-based, human
# [1] = system: Primary AML cells; test: Apoptosis of primary AML cells by annexin V staining and flow cytometry; settings: for % of Apoptosis: LAQ824 100 nM and/or Apo-2L/TRAIL 100 ng/mL, 24 hours
# Text: Jurkat T cell leukemia and SKW6.4 B lymphoblast cells are obtained from American Tissue Culture Collection (Manassas, Va.). HL-60/Bcl-2 cells with ectopic over-expression of Bcl-2 and the control HL-60/Neo cells are created and maintained in culture as previously described. Primary leukemia blasts from six patients with AML in relapse are harvested, as previously described, from the peripheral blood or bone marrow after informed consent, as a part of a protocol study sanctioned by the local Institutional Review Board. The purity of leukemia blasts in the samples prior to culture in LAQ824 and/or Apo-2L/TRAIL was at least 80% or more, as determined by morphologic evaluation after Wright staining.
# After drug treatments, cells are resuspended in 100 μL of the staining solution containing annexin-V fluorescein and propidium iodide in a HEPES buffer (Annexin-V-FLUOS Staining Kit, Boehringer-Mannheim, and Indianapolis, Ind.). Following incubation at room temperature for 15 minutes, annexin V positive cells are estimated by flow cytometry, as previously described.
# [2] = system: p21WAF1 promoter DNA; test: ChIP assay, p21WAF1 promoter; settings: Jurkat and SKW 6.4 cells
# Method: ChIP analysis was performed by a slight modification of a previously described method. Cells are incubated overnight at a density of 0.25×10^8 cells/ ml at 37° C. with 5% CO2. Next day, cells are cultured with 0, 50, 100 or 250 nM of LAQ 824 for 24 hours. Formaldehyde was then added to the cells to a final concentration of 1%, and the cells are gently shaken at room temperature for 10 minutes. Following this, the cells are pelleted, suspended in 1 mL of ice-cold PBS containing protease inhibitors (Complete, Boehringer Mannheim). Cells are again pelleted, re-suspended in 0.5 mL of SDS lysis buffer (1% SDS/1.0 mM EDTA/50 mM Tris.HCl, pH 8.1) and incubated on ice for 20 minutes. Lysates are sonicated with 15-second bursts. Debris was removed from samples by centrifugation for 20 minutes at 15,000×g at 4° C. An aliquot of the chromatin preparation (100 μL) was set aside and designated as Input Fraction. […] Immunoprecipitated DNA (both immunoprecipitation samples and Input) was recovered by phenol/chloroform extraction and ethanol precipitation and analyzed by PCR. […] The optimal reaction conditions for PCR are determined for each primer pair. […] The ratio between the immunoprecipitated DNA and Input DNA was calculated for each treatment and primer set. The fold increases after treatment with LAQ824 was calculated from the indicated ratio.
# [3] = system: Apo-2L/TRAIL-induced DISC; test: Apo-2L/TRAIL-induced DISC analysis; settings: LAQ824 100 nM for 24 hours followed by Apo-2L/TRAIL (100 ng/mL for two hours) versus Apo-2L/TRAIL; not c-FLIPL
# Method: Untreated or LAQ824 treated SKW 6.4 or Jurkat cells are suspended at a final concentration of 10^6 cells/mL in a pre-warmed, complete RPMI media. Cells are treated with 100 ng/mL Apo-2L/TRAIL for 2 hours at 37° C, followed by washing with 1 mL of ice-cold PBS. Cells are lysed in 500 μL lysis buffer (25 mM Tris-HCl, pH 7.2, 150 mM NaCl, 25 mM NaF, 1 mM benzamidine, 1.0% Triton X-100, 2 μg/mL aprotinin 2 μg/mL leupeptin, 1 μg/mL pepstin-A and 0.1 μg/mL PMSF) for 30 minutes on ice. In the untreated controls, 100 ng/mL Apo-2L/TRAIL was added after lysis of cells, to immunoprecipitate non-stimulated Apo-2L/TRAIL receptors. One-hundred micrograms (100 μg) of the lysates was incubated at 4° C. for 2 hours with 1 μg each of anti-Apo-2L/TRAIL receptor 1 & 2 (DR4 and DR5) antibodies, provided by Immunex Corp., Seattle Wash. The immune-complexes are incubated overnight at 4° C. with 20 μL of protein A-agarose beads (Roche, Indianapolis, Ind.). The beads are recovered by centrifugation and washed twice with the lysis buffer. The pellet was re-suspended in the sample buffer and analyzed by SDS-PAGE and immunoblot analysis using antibodies against caspase-8, DR5, DR4 and FADD.
smiles,measurement,setting,value
"O=C(/C=C/c1ccc(CN(CCO)CCc2c[nH]c3ccccc23)cc1)NO [LAQ824, N-hydroxy-3-[4-[[(2-hydroxyethyl)[2-(1H-indol-3-yl)ethyl]-amino]methyl]phenyl]-2E-2-propenamide]",% of Apoptosis,"[1]; Patient 1 primary AML cells, control 7.0",14.5%
same,% of Apoptosis,"[1]; Patient 2 primary AML cells, control 12.0",29.5%
same,% of Apoptosis,"[1]; Patient 3 primary AML cells, control 8.0",22.9%
same,% of Apoptosis,"[1]; Patient 4 primary AML cells, control 10.0",27.9%
same,% of Apoptosis,"[1]; Patient 5 primary AML cells, control 6.0",57.8%
same,% of Apoptosis,"[1]; Patient 6 primary AML cells, control 7.0",7.9%
same,apoptosis of primary AML blasts (in words),"[1]; six samples, relapsed AML, Apo-2L/TRAIL 100 ng/mL, LAQ824 100 nM",induces more apoptosis
same,association of p21WAF1 promoter DNA with acetylated histones,[2],increased
same,recruitment of FADD and caspase-8 into the immunoprecipitates of DR4 & DR5,[3],more recruitment
